Reference: PubChem BioAssay (NCI)
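The compound was tested at five concentrations on cells cultured in 96-well plates, with a 48-hour exposure period. The concentration for full growth arrest is given as TGI.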

Legend:
Assay in all cases: NCI tumour cell line growth inhibition, 48 h
HOP-62 NSCLC = system: HOP-62 NSCLC
MDA-N = system: MDA-N
PC-3 prostate = system: PC-3 prostate
SNB-75 CNS = system: SNB-75 CNS
NCI-H23 lung = system: NCI-H23 lung
DU-145 prostate = system: DU-145 prostate
HCC-2998 colon = system: HCC-2998 colon
ACHN renal = system: ACHN renal
SF-539 CNS = system: SF-539 CNS
LOX IMVI melanoma = system: LOX IMVI melanoma
SR leukemia = system: SR leukemia
MCF7 breast = system: MCF7 breast
MALME-3M melanoma = system: MALME-3M melanoma
HT29 colon = system: HT29 colon
OVCAR-3 ovarian = system: OVCAR-3 ovarian
A498 renal = system: A498 renal
U251 CNS = system: U251 CNS
SK-MEL-5 melanoma = system: SK-MEL-5 melanoma
SK-OV-3 ovarian = system: SK-OV-3 ovarian
MDA-MB-231 breast = system: MDA-MB-231 breast
K-562 leukemia = system: K-562 leukemia
IGROV1 ovarian = system: IGROV1 ovarian
NCI/ADR-RES ovarian = system: NCI/ADR-RES ovarian
SW-620 colon = system: SW-620 colon
HCT-116 colon = system: HCT-116 colon
BT-549 breast = system: BT-549 breast
UACC-62 melanoma = system: UACC-62 melanoma
SN12C renal = system: SN12C renal
NCI-H522 lung = system: NCI-H522 lung
COLO 205 colon = system: COLO 205 colon
A549 NSCLC = system: A549 NSCLC
HS 578T breast = system: HS 578T breast
HCT-15 colon = system: HCT-15 colon
SNB-19 CNS = system: SNB-19 CNS
UO-31 renal = system: UO-31 renal
OVCAR-8 ovarian = system: OVCAR-8 ovarian
UACC-257 melanoma = system: UACC-257 melanoma
M14 melanoma = system: M14 melanoma
SK-MEL-2 melanoma = system: SK-MEL-2 melanoma
HL-60(TB) leukemia = system: HL-60(TB) leukemia
CCRF-CEM leukemia = system: CCRF-CEM leukemia
MDA-MB-435 = system: MDA-MB-435
CAKI-1 renal = system: CAKI-1 renal
MOLT-4 leukemia = system: MOLT-4 leukemia
NCI-H460 lung = system: NCI-H460 lung
RPMI-8226 leukemia = system: RPMI-8226 leukemia
TK-10 renal = system: TK-10 renal
SK-MEL-28 melanoma = system: SK-MEL-28 melanoma
HOP-92 NSCLC = system: HOP-92 NSCLC
SF-295 CNS = system: SF-295 CNS
786-0 renal = system: 786-0 renal
T-47D breast = system: T-47D breast
EKVX NSCLC = system: EKVX NSCLC
SF-268 CNS = system: SF-268 CNS
RXF 393 renal = system: RXF 393 renal
KM12 colon = system: KM12 colon
OVCAR-5 ovarian = system: OVCAR-5 ovarian
NCI-H226 lung = system: NCI-H226 lung
OVCAR-4 ovarian = system: OVCAR-4 ovarian

In the case of `CC(=O)OCCOCn1cc(C=O)c2ccccc21`, the TGI (HOP-62 NSCLC) was > 100 µM, the TGI (MDA-N) was > 100 µM and the TGI (PC-3 prostate) was > 100 µM. The TGI (SNB-75 CNS) was > 100 µM, the TGI (NCI-H23 lung) was > 100 µM and the TGI (DU-145 prostate) was > 100 µM. The TGI (HCC-2998 colon) was > 100 µM, the TGI (ACHN renal) was > 100 µM and the TGI (SF-539 CNS) was > 100 µM. The TGI (LOX IMVI melanoma) was > 100 µM, the TGI (SR leukemia) was > 100 µM and the TGI (MCF7 breast) was > 100 µM. The TGI (MALME-3M melanoma) was > 100 µM, the TGI (HT29 colon) was > 100 µM and the TGI (OVCAR-3 ovarian) was > 100 µM. The TGI (A498 renal) was 3.89 µM, the TGI (U251 CNS) was > 100 µM and the TGI (SK-MEL-5 melanoma) was > 100 µM. For the same compound, the TGI (SK-OV-3 ovarian) was > 100 µM, the TGI (MDA-MB-231 breast) was > 100 µM and the TGI (K-562 leukemia) was > 100 µM. For the same compound, the TGI (IGROV1 ovarian) was > 100 µM, the TGI (NCI/ADR-RES ovarian) was > 100 µM and the TGI (SW-620 colon) was > 100 µM. For the same compound, the TGI (HCT-116 colon) was > 100 µM, the TGI (BT-549 breast) was > 100 µM and the TGI (UACC-62 melanoma) was > 100 µM. The TGI (SN12C renal) was > 100 µM, the TGI (NCI-H522 lung) was > 100 µM and the TGI (COLO 205 colon) was > 100 µM. For the same compound, the TGI (A549 NSCLC) was > 100 µM, the TGI (HS 578T breast) was > 100 µM and the TGI (HCT-15 colon) was > 100 µM. For the same compound, the TGI (SNB-19 CNS) was > 100 µM, the TGI (UO-31 renal) was > 100 µM and the TGI (OVCAR-8 ovarian) was > 100 µM. The TGI (UACC-257 melanoma) was > 100 µM, the TGI (M14 melanoma) was > 100 µM and the TGI (SK-MEL-2 melanoma) was > 100 µM. For the same compound, the TGI (HL-60(TB) leukemia) was > 100 µM, the TGI (CCRF-CEM leukemia) was > 100 µM and the TGI (MDA-MB-435) was > 100 µM. The TGI (CAKI-1 renal) was > 100 µM, the TGI (MOLT-4 leukemia) was > 100 µM and the TGI (NCI-H460 lung) was > 100 µM. The TGI (RPMI-8226 leukemia) was > 100 µM, the TGI (TK-10 renal) was > 100 µM and the TGI (SK-MEL-28 melanoma) was > 100 µM. The TGI (HOP-92 NSCLC) was > 100 µM, the TGI (SF-295 CNS) was > 100 µM and the TGI (786-0 renal) was > 100 µM. The TGI (T-47D breast) was > 100 µM, the TGI (EKVX NSCLC) was > 100 µM and the TGI (SF-268 CNS) was > 100 µM. The TGI (RXF 393 renal) was > 100 µM, the TGI (KM12 colon) was > 100 µM and the TGI (OVCAR-5 ovarian) was > 100 µM.

In the case of `CC(C)(C)c1ccc(-n2c3nc(=O)n(-c4ccccc4C(F)(F)F)c(=O)c-3cc3ccccc32)cc1`, the TGI (HOP-62 NSCLC) was 40.3 µM, the TGI (MDA-N) was 74.8 µM and the TGI (PC-3 prostate) was 51 µM. The TGI (SNB-75 CNS) was 71.3 µM, the TGI (NCI-H23 lung) was > 100 µM and the TGI (DU-145 prostate) was > 100 µM. The TGI (HCC-2998 colon) was 28.4 µM, the TGI (ACHN renal) was 60 µM and the TGI (SF-539 CNS) was 63.4 µM. It also gave a TGI (LOX IMVI melanoma) of 28.6 µM, a TGI (SR leukemia) of 43.6 µM and a TGI (MCF7 breast) of 72.9 µM. The TGI (HT29 colon) was 37.5 µM, the TGI (OVCAR-3 ovarian) was 31.4 µM and the TGI (A498 renal) was 76.3 µM. For the same compound, the TGI (U251 CNS) was 29.6 µM, the TGI (SK-MEL-5 melanoma) was 29 µM and the TGI (MDA-MB-231 breast) was 63 µM. For the same compound, the TGI (K-562 leukemia) was 61.7 µM, the TGI (IGROV1 ovarian) was > 100 µM and the TGI (NCI/ADR-RES ovarian) was 89.8 µM. The TGI (NCI-H226 lung) was 60.8 µM, the TGI (SW-620 colon) was 62.8 µM and the TGI (HCT-116 colon) was 25.1 µM. For the same compound, the TGI (BT-549 breast) was > 100 µM, the TGI (UACC-62 melanoma) was 33.8 µM and the TGI (SN12C renal) was 59.1 µM. The TGI (NCI-H522 lung) was 45.4 µM, the TGI (COLO 205 colon) was 43.7 µM and the TGI (A549 NSCLC) was > 100 µM. For the same compound, the TGI (HS 578T breast) was 68.1 µM, the TGI (HCT-15 colon) was 31.3 µM and the TGI (SNB-19 CNS) was > 100 µM. The TGI (UO-31 renal) was > 100 µM, the TGI (OVCAR-8 ovarian) was 84.6 µM and the TGI (UACC-257 melanoma) was 48 µM. It also gave a TGI (M14 melanoma) of 32.3 µM, a TGI (SK-MEL-2 melanoma) of 30.8 µM and a TGI (HL-60(TB) leukemia) of 36.1 µM. For the same compound, the TGI (CCRF-CEM leukemia) was 41.9 µM, the TGI (MDA-MB-435) was 35.6 µM and the TGI (OVCAR-4 ovarian) was > 100 µM. The TGI (CAKI-1 renal) was 66.8 µM, the TGI (MOLT-4 leukemia) was 53 µM and the TGI (NCI-H460 lung) was 16 µM. The TGI (TK-10 renal) was > 100 µM, the TGI (SK-MEL-28 melanoma) was 23.5 µM and the TGI (HOP-92 NSCLC) was 51.7 µM. For the same compound, the TGI (SF-295 CNS) was 60.5 µM, the TGI (786-0 renal) was > 100 µM and the TGI (T-47D breast) was > 100 µM. For the same compound, the TGI (EKVX NSCLC) was 64.9 µM, the TGI (SF-268 CNS) was > 100 µM and the TGI (RXF 393 renal) was 51.7 µM. For the same compound, the TGI (KM12 colon) was 37.3 µM and the TGI (OVCAR-5 ovarian) was 55.2 µM.

With `Cn1c(=O)n2c(=O)n(C)c(=O)n2c1=O` the TGI (MDA-N) was > 100 µM, the TGI (PC-3 prostate) was > 100 µM and the TGI (SNB-75 CNS) was > 100 µM. For the same compound, the TGI (NCI-H23 lung) was > 100 µM, the TGI (DU-145 prostate) was > 100 µM and the TGI (HCC-2998 colon) was > 100 µM. For the same compound, the TGI (SF-539 CNS) was > 100 µM, the TGI (LOX IMVI melanoma) was > 100 µM and the TGI (SR leukemia) was > 100 µM. For the same compound, the TGI (MCF7 breast) was > 100 µM, the TGI (MALME-3M melanoma) was > 100 µM and the TGI (HT29 colon) was > 100 µM. For the same compound, the TGI (OVCAR-3 ovarian) was > 100 µM, the TGI (A498 renal) was > 100 µM and the TGI (U251 CNS) was > 100 µM. For the same compound, the TGI (SK-MEL-5 melanoma) was > 100 µM, the TGI (SK-OV-3 ovarian) was > 100 µM and the TGI (MDA-MB-231 breast) was > 100 µM. The TGI (K-562 leukemia) was > 100 µM, the TGI (IGROV1 ovarian) was > 100 µM and the TGI (NCI/ADR-RES ovarian) was > 100 µM. For the same compound, the TGI (NCI-H226 lung) was > 100 µM, the TGI (SW-620 colon) was > 100 µM and the TGI (HCT-116 colon) was > 100 µM. For the same compound, the TGI (BT-549 breast) was > 100 µM, the TGI (UACC-62 melanoma) was > 100 µM and the TGI (SN12C renal) was > 100 µM. For the same compound, the TGI (NCI-H522 lung) was > 100 µM, the TGI (COLO 205 colon) was > 100 µM and the TGI (A549 NSCLC) was > 100 µM. For the same compound, the TGI (HS 578T breast) was > 100 µM, the TGI (HCT-15 colon) was > 100 µM and the TGI (SNB-19 CNS) was > 100 µM. The TGI (UO-31 renal) was > 100 µM, the TGI (OVCAR-8 ovarian) was > 100 µM and the TGI (UACC-257 melanoma) was > 100 µM. For the same compound, the TGI (M14 melanoma) was > 100 µM, the TGI (SK-MEL-2 melanoma) was > 100 µM and the TGI (HL-60(TB) leukemia) was > 100 µM. The TGI (CCRF-CEM leukemia) was > 100 µM, the TGI (MDA-MB-435) was > 100 µM and the TGI (OVCAR-4 ovarian) was > 100 µM. For the same compound, the TGI (CAKI-1 renal) was > 100 µM, the TGI (MOLT-4 leukemia) was > 100 µM and the TGI (NCI-H460 lung) was > 100 µM. The TGI (RPMI-8226 leukemia) was > 100 µM, the TGI (TK-10 renal) was > 100 µM and the TGI (SK-MEL-28 melanoma) was > 100 µM. For the same compound, the TGI (786-0 renal) was > 100 µM, the TGI (T-47D breast) was > 100 µM and the TGI (EKVX NSCLC) was > 100 µM. For the same compound, the TGI (SF-268 CNS) was > 100 µM, the TGI (RXF 393 renal) was > 100 µM and the TGI (KM12 colon) was > 100 µM. The TGI (OVCAR-5 ovarian) was > 100 µM.
